Measured values taken from patent US20250152559A1, “METHODS FOR TREATING MYC-AMPLIFIED CANCER” (The Governing Council of the University of Toronto, priority 2023, published 2025).

Tested on: SU_MB002 cells
Experiment: Mass spectrometry-based metabolomics and lipidomics of treated cells
Type: cell-based, human
Procedure: For metabolome and lipidome profiling, ˜10^6 cells and tissues were washed with PBS prior to collection and immediately flash frozen. For metabolite extraction, 1 mL of cold acetonitrile/methanol/water (2:2:1; v:v:v) was added to the cell pellets followed by 3 cycles of freezing in liquid N2 for 1 min, followed by 15 min of thawing in a sonicating ice/water bath. This was followed by incubation at −20° C. and centrifugation at 16,000×g for 15 min at 4° C. […] to fully precipitate protein. Supernatants were transferred to another tube and dried in a vacuum concentrator. For lipid extraction, cells were resuspended in 30 μL of water, followed by three cycles of freeze/thawing and sonication. To this, 225 μL of methanol was added, followed by brief vortexing and addition of 750 μL of methyl tert-butyl ether (MTBE). Samples were incubated at room temperature for 1 hr with gentle shaking. To induce phase-separation, 188 μL of water was added, samples were vortexed for 20 s and centrifuged for 5 min at 16,000×g. The upper and lower phases were collected and transferred to another tube and dried down in a vacuum concentrator. The dry metabolome and lipidome extracts were stored at −80° C. prior to analysis by liquid chromatography-mass spectrometry (LC-MS). Metabolite extracts were reconstituted in LC-MS grade water/acetonitrile (50:50; v:v), vortexed for 1 min, sonicated for 15 min, and centrifuged at 16,000×g and 4° C. for 15 min to remove insoluble debris. The lipidome extracts were reconstituted in acetonitrile/2-propanol (50:50; v:v), vortexed for 1 min, sonicated for 15 min, and centrifuged at 16,000×g and 10° C. for 15 min to remove insoluble debris.
The LC-MS metabolomics and lipidomics analyses of the 3 NSC and 3 MB cell lines and tissues were performed on a UPLC-MS system consisting of an Orbitrap IQ-X Tribrid coupled to a Horizon Vanquish UPLC system (Thermo Fisher Scientific). The lipidomics analysis was conducted in positive-ion mode with a spray voltage of 3.5 kV while the metabolomics analysis was conducted in negative-ion mode with a spray voltage of −2.5 kV. The following source conditions were identical in both analyses and were set as follows: Sheath gas flow rate, 50 arbitrary units; Aux. gas flow rate, 10 arbitrary units; Sweep gas flow rate, 1 arbitrary unit; Ion transfer tube temp., 300° C.; Vaporizer temp., 350° C. The following acquisition parameters were used for MS1 analysis in both methods: resolution, 120,000, AGC target, 4e5. The maximum IT was set at […] for the lipidomics analysis and 200 ms for the metabolomics analysis. Data-dependent MS/MS parameters for the lipidomics analyses: resolution, 30,000; AGC target, 7.5e4; maximum IT, Dynamic (54 ms); time between Master Scans, 0.6 s; isolation window, 1.0 m/z; NCE/stepped nce, 20, 30, 40; intensity threshold, 5e4; exclude isotopes, on; dynamic exclusion, 3.0 s. Data-dependent MS/MS parameters for the metabolomics analyses: resolution. 15,000; AGC target, 7.5e4; maximum IT, Dynamic (22 ms); time between Master Scans, 0.6 s; isolation window, 1.0 m/z; NCE/stepped nce, 20, 30, 40, 50; intensity threshold, 5e4; exclude isotopes, on; dynamic exclusion, 5.0 s. To increase the total number of MS/MS spectra in the lipidomics analysis, five runs with iterative MS/MS exclusions were performed using the AcquireX function in Xcalibur (Thermo Fisher Scientific). In the metabolomics analysis, three runs with iterative MS/MS exclusions were performed using the AcquireX function. For the lipidomics analysis, chromatographic separation was achieved using a Waters Acquity UPLC CSH C18 (100 mm×2.1 mm i.d.; 1.7 μm) column injecting 2 μL. […] The column was equilibrated for 2 min at 15% B. The flow rate was set to 250 μL/min. The column temperature was maintained at 65° C. For the metabolomics analysis, chromatographic separation was achieved using a SeQuant ZIC-PHILIC (150 mm×2.1 mm i.d.; 5 μm) column injecting 2 μL. […]

[1] = SU_MB002 cells treated with BAY (IC90)
[2] = SU_MB002 cells, BAY (IC90) vs vehicle

CCn1c(CO)nn(-c2cc(O[C@@H](C)C(F)(F)F)c(C(=O)Nc3c(F)cccc3Cl)cc2F)c1=O [BAY2402234]
2-Aminoadipic acid normalized peak intensity, BAY average [1]: 26487 | Argininosuccinic acid normalized peak intensity, BAY average [1]: 114194 | Asparagine normalized peak intensity, BAY average [1]: 172639.25 | Aspartic Acid normalized peak intensity, BAY average [1]: 214198 | CDP normalized peak intensity, BAY average [1]: 5476872.25 | CTP normalized peak intensity, BAY average [1]: 810207.75 | Citramalate normalized peak intensity, BAY average [1]: 4459.5 | Citrate normalized peak intensity, BAY average [1]: 76953 | Creatine phosphate normalized peak intensity, BAY average [1]: 619707.25 | Cystathionine normalized peak intensity, BAY average [1]: 3636 | Dihydroorotic Acid normalized peak intensity, BAY average [1]: 462202 | Gluconic acid normalized peak intensity, BAY average [1]: 1081576.5 | Glutamate normalized peak intensity, BAY average [1]: 26227101.8 | Glyceraldehyde-3-phosphate normalized peak intensity, BAY average [1]: 78313.3333 | Hydroxyglutaric acid normalized peak intensity, BAY average [1]: 37974496.3 | Inositol normalized peak intensity, BAY average [1]: 40859409.5 | N-Acetyl glucosamine monophosphate normalized peak intensity, BAY average [1]: 8697678.5 | N-Acetylglutamic Acid normalized peak intensity, BAY average [1]: 189382 | N-Carbamoyl Aspartic Acid normalized peak intensity, BAY average [1]: 31547.3333 | PE O-32:1 normalized peak intensity, BAY average [1]: 2472183.74 | PE O-32:2 normalized peak intensity, BAY average [1]: 11446617.4 | PE O-34:1 normalized peak intensity, BAY average [1]: 3839410.03 | PE O-34:2 normalized peak intensity, BAY average [1]: 92503648 | PE O-36:1 normalized peak intensity, BAY average [1]: 531398.036 | PE O-36:2 normalized peak intensity, BAY average [1]: 102597837 | PE O-36:4 normalized peak intensity, BAY average [1]: 258977958 | PE O-38:4 normalized peak intensity, BAY average [1]: 210123122 | PE O-40:2 normalized peak intensity, BAY average [1]: 10612336 | PE O-40:4 normalized peak intensity, BAY average [1]: 226507622 | PE O-42:3 normalized peak intensity, BAY average [1]: 911901.571 | PE O-42:4 normalized peak intensity, BAY average [1]: 13670542.5 | PE O-42:5 normalized peak intensity, BAY average [1]: 14681375.2 | Proline normalized peak intensity, BAY average [1]: 129729612 | Saccharopine normalized peak intensity, BAY average [1]: 11126.3333 | Sarcosine normalized peak intensity, BAY average [1]: 178498.5 | TG(42:0) normalized peak intensity, BAY average [1]: 15967351.9 | TG(44:0) normalized peak intensity, BAY average [1]: 64916660.2 | TG(44:1) normalized peak intensity, BAY average [1]: 72494555.5 | TG(44:2) normalized peak intensity, BAY average [1]: 23582680.7 | TG(46:3) normalized peak intensity, BAY average [1]: 35191113.7 | TG(48:0) normalized peak intensity, BAY average [1]: 234715455 | TG(48:1) normalized peak intensity, BAY average [1]: 2421262.9 | TG(48:3) normalized peak intensity, BAY average [1]: 16895583.2 | TG(48:4) normalized peak intensity, BAY average [1]: 33300539.1 | TG(48:5) normalized peak intensity, BAY average [1]: 2707280.56 | TG(50:0) normalized peak intensity, BAY average [1]: 235218307 | TG(50:2) normalized peak intensity, BAY average [1]: 1182402177 | TG(50:3) normalized peak intensity, BAY average [1]: 595402718 | TG(52:1) normalized peak intensity, BAY average [1]: 649526618 | TG(52:5) normalized peak intensity, BAY average [1]: 9440406.47 | TG(54:1) normalized peak intensity, BAY average [1]: 104051454 | TG(54:6) normalized peak intensity, BAY average [1]: 36773026.8 | TG(56:7) normalized peak intensity, BAY average [1]: 13481295.5 | UDP normalized peak intensity, BAY average [1]: 964954.5 | UDP-Glucose normalized peak intensity, BAY average [1]: 609888.333 | UTP normalized peak intensity, BAY average [1]: 215065 | Uridine normalized peak intensity, BAY average [1]: 26154.5 | Xanthosine normalized peak intensity, BAY average [1]: 617698.75 | alpha-Ketoglutaric acid normalized peak intensity, BAY average [1]: 112368 | dCTP normalized peak intensity, BAY average [1]: 109835 | dTDP normalized peak intensity, BAY average [1]: 13149248 | 2-Aminoadipic acid Log2 Fold Change: (BAY)/(DMSO) [2]: −1.831 | Argininosuccinic acid Log2 Fold Change: (BAY)/(DMSO) [2]: 0.9374 | Asparagine Log2 Fold Change: (BAY)/(DMSO) [2]: −2.552 | Aspartic Acid Log2 Fold Change: (BAY)/(DMSO) [2]: 0.6679 | CDP Log2 Fold Change: (BAY)/(DMSO) [2]: −1.056 | CTP Log2 Fold Change: (BAY)/(DMSO) [2]: −1.688 | Citramalate Log2 Fold Change: (BAY)/(DMSO) [2]: −1.15 | Citrate Log2 Fold Change: (BAY)/(DMSO) [2]: −2.924 | Creatine phosphate Log2 Fold Change: (BAY)/(DMSO) [2]: −0.8039 | Cystathionine Log2 Fold Change: (BAY)/(DMSO) [2]: −1.709 | Dihydroorotic Acid Log2 Fold Change: (BAY)/(DMSO) [2]: −2.147 | Gluconic acid Log2 Fold Change: (BAY)/(DMSO) [2]: 2.808 | Glutamate Log2 Fold Change: (BAY)/(DMSO) [2]: 0.5525 | Glyceraldehyde-3-phosphate Log2 Fold Change: (BAY)/(DMSO) [2]: −1.224 | Hydroxyglutaric acid Log2 Fold Change: (BAY)/(DMSO) [2]: 7.211 | Inositol Log2 Fold Change: (BAY)/(DMSO) [2]: −0.7576 | N-Acetyl glucosamine monophosphate Log2 Fold Change: (BAY)/(DMSO) [2]: −0.5317 | N-Acetylglutamic Acid Log2 Fold Change: (BAY)/(DMSO) [2]: 1.218 | N-Carbamoyl Aspartic Acid Log2 Fold Change: (BAY)/(DMSO) [2]: −2.853 | PE O-32:1 Log2 Fold Change: (BAY)/(DMSO) [2]: 1.371 | PE O-32:2 Log2 Fold Change: (BAY)/(DMSO) [2]: 1.59 | PE O-34:1 Log2 Fold Change: (BAY)/(DMSO) [2]: 0.7945 | PE O-34:2 Log2 Fold Change: (BAY)/(DMSO) [2]: 1.319 | PE O-36:1 Log2 Fold Change: (BAY)/(DMSO) [2]: 0.9815 | PE O-36:2 Log2 Fold Change: (BAY)/(DMSO) [2]: 0.7435 | PE O-36:4 Log2 Fold Change: (BAY)/(DMSO) [2]: 0.9655 | PE O-38:4 Log2 Fold Change: (BAY)/(DMSO) [2]: 0.6388 | PE O-40:2 Log2 Fold Change: (BAY)/(DMSO) [2]: 0.4723 | PE O-40:4 Log2 Fold Change: (BAY)/(DMSO) [2]: 0.2968 | PE O-42:3 Log2 Fold Change: (BAY)/(DMSO) [2]: 0.5216 | PE O-42:4 Log2 Fold Change: (BAY)/(DMSO) [2]: 0.6964 | PE O-42:5 Log2 Fold Change: (BAY)/(DMSO) [2]: 0.2828 | Proline Log2 Fold Change: (BAY)/(DMSO) [2]: 11.27 | Saccharopine Log2 Fold Change: (BAY)/(DMSO) [2]: −1.712 | Sarcosine Log2 Fold Change: (BAY)/(DMSO) [2]: −0.4764 | TG(42:0) Log2 Fold Change: (BAY)/(DMSO) [2]: 2.859 | TG(44:0) Log2 Fold Change: (BAY)/(DMSO) [2]: 2.947 | TG(44:1) Log2 Fold Change: (BAY)/(DMSO) [2]: 3.568 | TG(44:2) Log2 Fold Change: (BAY)/(DMSO) [2]: 4.285 | TG(46:3) Log2 Fold Change: (BAY)/(DMSO) [2]: 4.265 | TG(48:0) Log2 Fold Change: (BAY)/(DMSO) [2]: 1.816 | TG(48:1) Log2 Fold Change: (BAY)/(DMSO) [2]: 2.541 | TG(48:3) Log2 Fold Change: (BAY)/(DMSO) [2]: 3.131 | TG(48:4) Log2 Fold Change: (BAY)/(DMSO) [2]: 3.96 | TG(48:5) Log2 Fold Change: (BAY)/(DMSO) [2]: 5.389 | TG(50:0) Log2 Fold Change: (BAY)/(DMSO) [2]: 1.574 | TG(50:2) Log2 Fold Change: (BAY)/(DMSO) [2]: 1.881 | TG(50:3) Log2 Fold Change: (BAY)/(DMSO) [2]: 2.346 | TG(52:1) Log2 Fold Change: (BAY)/(DMSO) [2]: 1.065 | TG(52:5) Log2 Fold Change: (BAY)/(DMSO) [2]: 2.418 | TG(54:1) Log2 Fold Change: (BAY)/(DMSO) [2]: 0.738 | TG(54:6) Log2 Fold Change: (BAY)/(DMSO) [2]: 1.79 | TG(56:7) Log2 Fold Change: (BAY)/(DMSO) [2]: 1.418 | UDP Log2 Fold Change: (BAY)/(DMSO) [2]: −3.019 | UDP-Glucose Log2 Fold Change: (BAY)/(DMSO) [2]: −2.77 | UTP Log2 Fold Change: (BAY)/(DMSO) [2]: −3.375 | Uridine Log2 Fold Change: (BAY)/(DMSO) [2]: −4.037 | Xanthosine Log2 Fold Change: (BAY)/(DMSO) [2]: 3.486 | alpha-Ketoglutaric acid Log2 Fold Change: (BAY)/(DMSO) [2]: −1.687 | dCTP Log2 Fold Change: (BAY)/(DMSO) [2]: 2.27 | dTDP Log2 Fold Change: (BAY)/(DMSO) [2]: 1.896
